“And” between values parts separate entries of the source, which are not always exact repeats. Identical values can stand only once.
Test system: not listed separately
Test: Antiviral activity against HCoV-OC43 infected in human HCT-8 cells assessed as inhibition of viral growth at 10 uM incubated for 4 days by ELISA analysis relative to control
Assay type: functional, Human coronavirus OC43
Set-up: scale not given: the % may be the effect or the level left
Conditions: time 4 day

SMILES | Activity [%]
O=C(O)CCc1nccc2c1[nH]c1ccccc12 | <20
C=C1[C@@H](O)[C@@]2(O)OC[C@]34[C@H]2[C@@]2(C)[C@H](O)C(=O)C=C(C)[C@@H]2C[C@H]3OC(=O)[C@H](O)[C@@]14O [EURYCOMANONE] | 57.93
CC1=CC(=O)[C@@H](O)[C@]2(C)[C@H]3[C@]4(O)OC[C@@]35[C@@H](C[C@@H]12)OC(=O)[C@H](O)[C@@]5(O)[C@](C)(O)[C@H]4O | 93.71
O=c1ccc2nccc3c4ccc(O)cc4n1c23 | <20
O=c1ccc2nccc3c4ccc(O[C@@H]5O[C@H](CO)[C@@H](O)[C@H](O)[C@H]5O)cc4n1c23 | <20
CC1=CC(=O)[C@@H](O)[C@]2(C)[C@H]3[C@]4(O)OC[C@@]35[C@@H](C[C@@H]12)OC(=O)C[C@H]5[C@](C)(O)[C@H]4O | 84.54
C=C1CC[C@@H]2[C@](C)(CO)[C@H](O)CC[C@@]2(C)[C@@H]1C/C=C1/C(=O)OC[C@H]1O [ANDROGRAPHOLIDE] | 60.4
COc1ccc2c(c1)[nH]c1c(CCC(=O)O)nccc12 | <20

Test system: HCT-8
Test: Cytotoxicity against human HCT-8 cells assessed as redcution in cell viability at 10 uM incubated for 96 hrs by PrestoBlue reagent based assay relative to control
Assay type: toxicity
Conditions: hct-8, 96 h

SMILES | Activity [%]
O=C(O)CCc1nccc2c1[nH]c1ccccc12 | 108.05
C=C1[C@@H](O)[C@@]2(O)OC[C@]34[C@H]2[C@@]2(C)[C@H](O)C(=O)C=C(C)[C@@H]2C[C@H]3OC(=O)[C@H](O)[C@@]14O [EURYCOMANONE] | 72.16
CC1=CC(=O)[C@@H](O)[C@]2(C)[C@H]3[C@]4(O)OC[C@@]35[C@@H](C[C@@H]12)OC(=O)[C@H](O)[C@@]5(O)[C@](C)(O)[C@H]4O | 70.13
O=c1ccc2nccc3c4ccc(O)cc4n1c23 | 49.3
O=c1ccc2nccc3c4ccc(O[C@@H]5O[C@H](CO)[C@@H](O)[C@H](O)[C@H]5O)cc4n1c23 | 53.28
CC1=CC(=O)[C@@H](O)[C@]2(C)[C@H]3[C@]4(O)OC[C@@]35[C@@H](C[C@@H]12)OC(=O)C[C@H]5[C@](C)(O)[C@H]4O | 56.66
C=C1CC[C@@H]2[C@](C)(CO)[C@H](O)CC[C@@]2(C)[C@@H]1C/C=C1/C(=O)OC[C@H]1O [ANDROGRAPHOLIDE] | 93.47
COc1ccc2c(c1)[nH]c1c(CCC(=O)O)nccc12 | 108.23

Test system: not listed separately
Test: Antiviral activity against HCoV-OC43 infected in human HCT-8 cells assessed as inhibition of viral growth incubated for 4 days by ELISA analysis
Assay type: functional, cell-based, Human coronavirus OC43
Conditions: Betacoronavirus 1, HCT-8, 96 h

SMILES | IC50 [µM]
C=C1[C@@H](O)[C@@]2(O)OC[C@]34[C@H]2[C@@]2(C)[C@H](O)C(=O)C=C(C)[C@@H]2C[C@H]3OC(=O)[C@H](O)[C@@]14O [EURYCOMANONE] | 4.47
CC1=CC(=O)[C@@H](O)[C@]2(C)[C@H]3[C@]4(O)OC[C@@]35[C@@H](C[C@@H]12)OC(=O)[C@H](O)[C@@]5(O)[C@](C)(O)[C@H]4O | 0.25
CC1=CC(=O)[C@@H](O)[C@]2(C)[C@H]3[C@]4(O)OC[C@@]35[C@@H](C[C@@H]12)OC(=O)C[C@H]5[C@](C)(O)[C@H]4O | 0.32

Test system: not listed separately
Test: Cytotoxicity against human HCT-8 cells assessed as redcution in cell viability incubated for 96 hrs by PrestoBlue reagent based assay
Assay type: toxicity
Conditions: not given

SMILES | CC50 at 96 h [µM]
O=C(O)CCc1nccc2c1[nH]c1ccccc12 | > 100
C=C1[C@@H](O)[C@@]2(O)OC[C@]34[C@H]2[C@@]2(C)[C@H](O)C(=O)C=C(C)[C@@H]2C[C@H]3OC(=O)[C@H](O)[C@@]14O [EURYCOMANONE] | 59.2
CC1=CC(=O)[C@@H](O)[C@]2(C)[C@H]3[C@]4(O)OC[C@@]35[C@@H](C[C@@H]12)OC(=O)[C@H](O)[C@@]5(O)[C@](C)(O)[C@H]4O | 48.7
O=c1ccc2nccc3c4ccc(O)cc4n1c23 | 60.9
O=c1ccc2nccc3c4ccc(O[C@@H]5O[C@H](CO)[C@@H](O)[C@H](O)[C@H]5O)cc4n1c23 | 33.8
CC1=CC(=O)[C@@H](O)[C@]2(C)[C@H]3[C@]4(O)OC[C@@]35[C@@H](C[C@@H]12)OC(=O)C[C@H]5[C@](C)(O)[C@H]4O | 6.65
COc1ccc2c(c1)[nH]c1c(CCC(=O)O)nccc12 | 79

Test system: not listed separately
Test: Selectivity index, ratio of CC50 for cytotoxicity against human HCT-8 cells to IC50 for antiviral activity against HCoV-OC43 infected in human HCT-8 cells
Assay type: toxicity, cell-based
Conditions: read-out: Ratio CC50/IC50

SMILES | selectivity ratio
C=C1[C@@H](O)[C@@]2(O)OC[C@]34[C@H]2[C@@]2(C)[C@H](O)C(=O)C=C(C)[C@@H]2C[C@H]3OC(=O)[C@H](O)[C@@]14O [EURYCOMANONE] | 13.2
CC1=CC(=O)[C@@H](O)[C@]2(C)[C@H]3[C@]4(O)OC[C@@]35[C@@H](C[C@@H]12)OC(=O)[C@H](O)[C@@]5(O)[C@](C)(O)[C@H]4O | 195
CC1=CC(=O)[C@@H](O)[C@]2(C)[C@H]3[C@]4(O)OC[C@@]35[C@@H](C[C@@H]12)OC(=O)C[C@H]5[C@](C)(O)[C@H]4O | 20.8

Test system: SARS-CoV-2
Test: Antiviral activity against SARS-CoV-2 infected in African green monkey Vero cells assessed as inhibition of viral growth incubated for 2 days by ELISA analysis
Assay type: functional, organism-based
Conditions: Severe acute respiratory syndrome coronavirus 2, Vero, 48 h

SMILES | IC50
C=C1[C@@H](O)[C@@]2(O)OC[C@]34[C@H]2[C@@]2(C)[C@H](O)C(=O)C=C(C)[C@@H]2C[C@H]3OC(=O)[C@H](O)[C@@]14O [EURYCOMANONE] | 15 µM and 6.11 µg/mL
CC1=CC(=O)[C@@H](O)[C@]2(C)[C@H]3[C@]4(O)OC[C@@]35[C@@H](C[C@@H]12)OC(=O)[C@H](O)[C@@]5(O)[C@](C)(O)[C@H]4O | 4.84 µM and 1.69 µg/mL
CC1=CC(=O)[C@@H](O)[C@]2(C)[C@H]3[C@]4(O)OC[C@@]35[C@@H](C[C@@H]12)OC(=O)C[C@H]5[C@](C)(O)[C@H]4O | 430 nM and 0.16 µg/mL

Test system: not listed separately
Test: Cytotoxicity against African green monkey Vero cells assessed as reduction in cell viability incubated for 48 hrs by PrestoBlue reagent based assay
Assay type: toxicity
Conditions: chlorocebus sabaeus

SMILES | CC50 at 48 h [µM]
O=C(O)CCc1nccc2c1[nH]c1ccccc12 | > 100
C=C1[C@@H](O)[C@@]2(O)OC[C@]34[C@H]2[C@@]2(C)[C@H](O)C(=O)C=C(C)[C@@H]2C[C@H]3OC(=O)[C@H](O)[C@@]14O [EURYCOMANONE] | > 100
CC1=CC(=O)[C@@H](O)[C@]2(C)[C@H]3[C@]4(O)OC[C@@]35[C@@H](C[C@@H]12)OC(=O)[C@H](O)[C@@]5(O)[C@](C)(O)[C@H]4O | > 100
O=c1ccc2nccc3c4ccc(O)cc4n1c23 | > 100
O=c1ccc2nccc3c4ccc(O[C@@H]5O[C@H](CO)[C@@H](O)[C@H](O)[C@H]5O)cc4n1c23 | > 100
CC1=CC(=O)[C@@H](O)[C@]2(C)[C@H]3[C@]4(O)OC[C@@]35[C@@H](C[C@@H]12)OC(=O)C[C@H]5[C@](C)(O)[C@H]4O | 26.2
COc1ccc2c(c1)[nH]c1c(CCC(=O)O)nccc12 | > 100

Test system: not listed separately
Test: Selectivity index, ratio of CC50 for cytotoxicity against African green monkey Vero cells to IC50 for antiviral activity against SARS-CoV-2 infected in African green monkey Vero cells
Assay type: toxicity, cell-based
Conditions: read-out: Ratio CC50/IC50

SMILES | selectivity ratio
C=C1[C@@H](O)[C@@]2(O)OC[C@]34[C@H]2[C@@]2(C)[C@H](O)C(=O)C=C(C)[C@@H]2C[C@H]3OC(=O)[C@H](O)[C@@]14O [EURYCOMANONE] | > 6.68
CC1=CC(=O)[C@@H](O)[C@]2(C)[C@H]3[C@]4(O)OC[C@@]35[C@@H](C[C@@H]12)OC(=O)[C@H](O)[C@@]5(O)[C@](C)(O)[C@H]4O | > 20.7
CC1=CC(=O)[C@@H](O)[C@]2(C)[C@H]3[C@]4(O)OC[C@@]35[C@@H](C[C@@H]12)OC(=O)C[C@H]5[C@](C)(O)[C@H]4O | 61

Test system: not listed separately
Test: Cytotoxicity against human Calu-3 cells assessed as reduction in cell viability incubated for 48 hrs by PrestoBlue reagent based assay
Assay type: toxicity
Conditions: not given

SMILES | CC50 at 48 h [µM]
O=C(O)CCc1nccc2c1[nH]c1ccccc12 | > 100
C=C1[C@@H](O)[C@@]2(O)OC[C@]34[C@H]2[C@@]2(C)[C@H](O)C(=O)C=C(C)[C@@H]2C[C@H]3OC(=O)[C@H](O)[C@@]14O [EURYCOMANONE] | 88.1
CC1=CC(=O)[C@@H](O)[C@]2(C)[C@H]3[C@]4(O)OC[C@@]35[C@@H](C[C@@H]12)OC(=O)[C@H](O)[C@@]5(O)[C@](C)(O)[C@H]4O | > 100
O=c1ccc2nccc3c4ccc(O)cc4n1c23 | > 100
O=c1ccc2nccc3c4ccc(O[C@@H]5O[C@H](CO)[C@@H](O)[C@H](O)[C@H]5O)cc4n1c23 | > 100
CC1=CC(=O)[C@@H](O)[C@]2(C)[C@H]3[C@]4(O)OC[C@@]35[C@@H](C[C@@H]12)OC(=O)C[C@H]5[C@](C)(O)[C@H]4O | 98.7
COc1ccc2c(c1)[nH]c1c(CCC(=O)O)nccc12 | > 100

Test system: not listed separately
Test: Cytotoxicity against human MRC5 cells assessed as reduction in cell viability incubated for 48 hrs by PrestoBlue reagent based assay
Assay type: toxicity
Conditions: not given

SMILES | CC50 at 48 h [µM]
O=C(O)CCc1nccc2c1[nH]c1ccccc12 | > 100
C=C1[C@@H](O)[C@@]2(O)OC[C@]34[C@H]2[C@@]2(C)[C@H](O)C(=O)C=C(C)[C@@H]2C[C@H]3OC(=O)[C@H](O)[C@@]14O [EURYCOMANONE] | > 100
CC1=CC(=O)[C@@H](O)[C@]2(C)[C@H]3[C@]4(O)OC[C@@]35[C@@H](C[C@@H]12)OC(=O)[C@H](O)[C@@]5(O)[C@](C)(O)[C@H]4O | 54.3
O=c1ccc2nccc3c4ccc(O)cc4n1c23 | > 100
O=c1ccc2nccc3c4ccc(O[C@@H]5O[C@H](CO)[C@@H](O)[C@H](O)[C@H]5O)cc4n1c23 | > 100
CC1=CC(=O)[C@@H](O)[C@]2(C)[C@H]3[C@]4(O)OC[C@@]35[C@@H](C[C@@H]12)OC(=O)C[C@H]5[C@](C)(O)[C@H]4O | 9.99
COc1ccc2c(c1)[nH]c1c(CCC(=O)O)nccc12 | > 100

Test system: not listed separately
Test: Cytotoxicity against human HepG2 cells assessed as reduction in cell viability incubated for 48 hrs by PrestoBlue reagent based assay
Assay type: toxicity
Conditions: not given

SMILES | CC50 at 48 h [µM]
O=C(O)CCc1nccc2c1[nH]c1ccccc12 | > 100
C=C1[C@@H](O)[C@@]2(O)OC[C@]34[C@H]2[C@@]2(C)[C@H](O)C(=O)C=C(C)[C@@H]2C[C@H]3OC(=O)[C@H](O)[C@@]14O [EURYCOMANONE] | > 100
CC1=CC(=O)[C@@H](O)[C@]2(C)[C@H]3[C@]4(O)OC[C@@]35[C@@H](C[C@@H]12)OC(=O)[C@H](O)[C@@]5(O)[C@](C)(O)[C@H]4O | > 100
O=c1ccc2nccc3c4ccc(O)cc4n1c23 | > 100
O=c1ccc2nccc3c4ccc(O[C@@H]5O[C@H](CO)[C@@H](O)[C@H](O)[C@H]5O)cc4n1c23 | > 100
CC1=CC(=O)[C@@H](O)[C@]2(C)[C@H]3[C@]4(O)OC[C@@]35[C@@H](C[C@@H]12)OC(=O)C[C@H]5[C@](C)(O)[C@H]4O | 86.7
COc1ccc2c(c1)[nH]c1c(CCC(=O)O)nccc12 | > 100

Reference: ChEMBL document CHEMBL5215003, “Evaluating the in Vitro Efficacy of Quassinoids from Eurycoma longifolia and Eurycoma harmandiana against Common Cold Human Coronavirus OC43 and SARS-CoV-2 Using In-Cell Enzyme-Linked Immunosorbent Assay” (J Nat Prod, 2022)
